Results as given in patent EP0301861A1, “Cell proliferation inhibitors” (Takeda Chemical Industries, Ltd., priority 1987, dated 1989).
Converted amounts (≈) assume the structure as drawn.

Key:
[1] = test system: human umbilical venous endothelial cells; assay: Inhibition of proliferation of human umbilical venous endothelial cells (MTT); type: cell-based; settings: Endothelial cell, 72 h, rFGF 2 ng/ml, 3 days of incubation, OD₅₉₀, read-out: IC₅₀
Method: Experiment 3 [Evaluation of inhibition of proliferation of human umbilical venous endothelial cells]
The human vascular endothelial cells were obtained by subculture of the cells, which had been obtained from human umbilical vein by perfusion with tripsin solution, in the culture medium which had been prepared by addition of 2.5% bovine fetal serum and 2.0 ng/ml of human recombinant fibroblast growth factor (abbreviated as rFGF hereinafter; prepared in Biotechnology Institute of our company) to GIT medium (Daigo Eiyou Kagaku).
A hundred µl of the suspension of 2 x 10³ human vascular endothelial cells was introduced to a 96-well culture plate (Nunc, 1-67008) and incubated in a gas-controlled thermostat. On the next day rFGF and 100 µl of a medium containing different concentrations of the test substance were added, so that the final concentration of rFGF might be 2 ng/ml. The test substance was dissolved in dimethylsufoxide (DMSO hereinafter) solution, and the resultant solution was diluted so that the final DMSO concentration might be 0.25% or less. After 3 days of incubation, the culture medium containing the test substance was aspirated off, 100 µl of 1 mg/ml MTT solution (3-(4,5-dimethyl-2-thiazolyl)-2,5-diphenyl-2H-tetrazolium bromide dissolved in the culture medium) was added, and the mixture was kept warm for 4 hours. Then 100 µl of 10% SDS solution (aqueous solution of sodium dodecylsulfate) was added and kept warm for 5 - 6 hours, so that the cells and MTT pigment were solubilized, and the OD₅₉₀ value was determined by spectrophotometer. The OD value of the control sample containing no test substance was taken as 100%, and the endothelial cell growth-inhibitory activity of the test substance was compared on the basis of the IC₅₀ value, the concentration of a compound at which 50% OD value is observed.

[2] = target: T1, 5-lipoxygenase from guinea pig polymorphonuclear leukocytes (Cavia porcellus, UniProt A0A286X958); assay: Inhibition of 5-lipoxygenase; type: biochemical; settings: 10⁻⁵ M; 25µM [1-¹⁴C]arachidonic acid as substrate, 25°C
T1 construct: from guinea pig peritoneal macrophage; from tissue
T1 sequence (A0A286X958 1-674): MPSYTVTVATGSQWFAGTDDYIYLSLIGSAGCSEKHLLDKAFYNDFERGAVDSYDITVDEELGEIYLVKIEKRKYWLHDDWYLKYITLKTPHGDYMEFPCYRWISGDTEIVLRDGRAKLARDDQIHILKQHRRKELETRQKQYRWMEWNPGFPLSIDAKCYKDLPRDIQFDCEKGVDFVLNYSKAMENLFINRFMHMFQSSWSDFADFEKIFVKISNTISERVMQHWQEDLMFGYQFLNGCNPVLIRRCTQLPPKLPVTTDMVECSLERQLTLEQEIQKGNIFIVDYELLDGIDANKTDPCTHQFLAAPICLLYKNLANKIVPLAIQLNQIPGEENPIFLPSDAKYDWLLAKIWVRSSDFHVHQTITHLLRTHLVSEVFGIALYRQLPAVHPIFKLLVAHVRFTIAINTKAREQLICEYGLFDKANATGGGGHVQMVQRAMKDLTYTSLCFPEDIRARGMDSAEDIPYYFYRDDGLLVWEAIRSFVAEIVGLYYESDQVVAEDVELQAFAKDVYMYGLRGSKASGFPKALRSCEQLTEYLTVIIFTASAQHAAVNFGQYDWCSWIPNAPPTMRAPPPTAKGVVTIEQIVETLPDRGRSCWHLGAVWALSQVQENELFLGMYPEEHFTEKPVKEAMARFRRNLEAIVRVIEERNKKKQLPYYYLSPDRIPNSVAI
Method: According to the routine method these ingredients were mixed and compressed by a tableting machine. Experiment 1 [Inhibition (10⁻⁵ M) of 5-lipoxygenase from guinea pig polymorphonuclear leukocytes]
5-Lipoxygenase used was the enzyme preparation prepared from guinea pig […]. For determination of the activity of lypoxygenase 25µM [1-¹⁴C]arachidonic acid (5 x 10⁴ cpm) as the substrate, 50 mM phosphate buffer solution (pH 7.4), 2 mM CaCl₂, 2 mM ATP, and a reaction mixture containing the enzyme (200µl) were used. After preincubation at 25°C for 2 minutes, [1-¹⁴C]arachidonic acid (5 x 10⁴ cpm) was added, and allowed to react at 25°C for 3 minutes; the resultant mixture was made acidic, and arachidonic acid and its metabolites were extracted with ether. Radioactivity of the ether layer was determined by silica gel thin layer chromatography using a mixture of petroleum ether:ethylether:acetic acid (15:85:0.1) as the eluant and the elution was performed at -10°C. After elution, the thin layer plate was subjected to autoradiography, the radioactive fractions were scraped out, and the radioactivity of the product was determined by counting. The agent was added two minutes before the beginning of the reaction.

[3] = test system: IL-2-dependent cells (NKC-3); assay: Inhibition of growth of IL-2-dependent cells (NKC-3) (MTT); type: cell-based; settings: NKC-3 cells with IL-2, 37°C for 20 hours, absorbance at 590 nm, read-out: IC₅₀
Method: Experiment 4 [Evaluation of inhibition of growth of IL-2-dependent cells (NKC-3)]
To each well of a 96-well microplate, 50 µl of NKC-3 cells (4 x 10⁵ cells/well), 20 µl of IL-2 solution (0.067 U/ml), and 40 µl of the test substance (DMSO solution) were added, which was incubated at 37°C for 20 hours (culture medium: RPMI1640-20%ECS). To each well 20 µl of MTT solution was added,which was kept at 37°C for 4 hours. Then 100 µl of 10% SDS solution was added to each well, which was kept still at 37°C overnight so that the cells and MTT pigment were solubilized, and the absorbance at 590 nm was measured by spectrophotometer. […] Compound No. IC₅₀ (M) 5 4.1 x 10⁻⁵

Inhibitory activity (%) [2] | SMILES | IC50 [1] | IC50 [3]
 | CC1=C(C)C(=O)C(C(CCC(=O)NO)c2ccccc2)=C(C)C1=O (stereo not shown) [Compound No.1] | 10 µg/mL (≈ 30.5 µM) | 
74.6% | CC1=C(C)C(=O)C(C(CCCCCC(=O)NO)c2ccccc2)=C(C)C1=O (stereo not shown) [Compound No.5] | 0.63 µg/mL (≈ 1.71 µM) | 41 µM
79.3% | CC1=C(C)C(=O)C(C(CCCCCC(=O)NO)c2ccc(F)cc2)=C(C)C1=O (stereo not shown) [Compound No.6, 7-(4-fluorophenyl)-7-(3,5,6-trimethyl-1,4-benzoquinon-2-yl)-heptanohydroxamic acid] | 1.25 µg/mL (≈ 3.23 µM) | 
83.8% | COc1ccc(C(CCCCCC(=O)NO)C2=C(C)C(=O)C(C)=C(C)C2=O)cc1 (stereo not shown) [Compound No.8, 7-(4-methoxyphenyl)-7-(3,5,6-trimethyl-1,4-benzoquinon-2-yl)-heptanohydroxamic acid] | 0.63 µg/mL (≈ 1.58 µM) | 
 | CC1=C(C(CCCCC(=O)NO)c2cccs2)C(=O)c2ccccc2C1=O (stereo not shown) [Compound No.13] | < 0.08 µg/mL | 
 | CC1=C(C)C(=O)C(C(CCCCC(=O)NO)c2ccccc2)=C(C)C1=O (stereo not shown) [compound 2] | 0.63 µg/mL (≈ 1.77 µM) | 
 | CC1=C(C)C(=O)C(C(CCCCC(=O)NO)c2ccc(F)cc2)=C(C)C1=O (stereo not shown) [compound 3] | 1.25 µg/mL (≈ 3.35 µM) | 
 | COc1ccc(C(CCCCC(=O)NO)C2=C(C)C(=O)C(C)=C(C)C2=O)cc1 (stereo not shown) [compound 4] | 0.63 µg/mL (≈ 1.63 µM) | 
 | CC1=C(C)C(=O)C(C(CCCCCC(=O)NO)c2ccc(C)cc2)=C(C)C1=O (stereo not shown) [compound 7] | 1.25 µg/mL (≈ 3.26 µM) | 
 | CC1=C(C)C(=O)C(C(CCCCCC(=O)NO)c2ccc(Cl)cc2)=C(C)C1=O (stereo not shown) [compound 9] | 1.25 µg/mL (≈ 3.09 µM) | 
 | CC1=C(C)C(=O)C(C(CCCCCCC(=O)NO)c2ccccc2)=C(C)C1=O (stereo not shown) [compound 10] | 25 µg/mL (≈ 65.2 µM) | 
 | CC1=C(C(CCCC(=O)NO)c2ccccc2)C(=O)c2ccccc2C1=O (stereo not shown) [compound 11] | 5 µg/mL (≈ 13.8 µM) | 
 | CC1=C(C(CCCCC(=O)NO)c2ccccc2)C(=O)c2ccccc2C1=O (stereo not shown) [compound 12] | 0.08 µg/mL (≈ 0.212 µM) | 
89.7% | CC1=C(C(CCCCCC(=O)NO)c2ccc(F)cc2)C(=O)c2ccccc2C1=O (stereo not shown) [compound 14] | < 0.63 µg/mL | 
 | CC1=C(C(CCCCCCC(=O)NO)c2ccccc2)C(=O)c2ccccc2C1=O (stereo not shown) [compound 15] | < 0.63 µg/mL | 
 | COC1=C(OC)C(=O)C(C(CCCCCC(=O)NO)c2ccccc2)=C(C)C1=O (stereo not shown) [compound 16] | 1.25 µg/mL (≈ 3.11 µM) | 
 | COC1=C(OC)C(=O)C(C(CCCC(=O)NO)c2ccccc2)=C(C)C1=O (stereo not shown) [compound 17] | 20 µg/mL (≈ 53.6 µM) | 
